According to ChEMBL document CHEMBL3217686, “A new route to indoles via in situ desilylationSonogashira strategy: identification of novel small molecules as potential anti-tuberculosis agents” (Medchemcomm, 2011):

System: Mycobacterium tuberculosis
Assay: Inhibition of Mycobacterium tuberculosis chorismate mutase expressed in Escherichia coli BL21 (DE3) assessed as conversion of chorismate to prephenate at 50 uM after 5 mins

Structure (SMILES)	inhibition [%]
COc1ccc(NS(C)(=O)=O)c(-c2cc3cc(OC)ccc3n2S(C)(=O)=O)c1	50
CS(=O)(=O)Nc1ccc(C#N)cc1-c1cc2cc(C#N)ccc2n1S(C)(=O)=O	20
Cc1ccc(S(=O)(=O)Nc2ccc(C)cc2-c2cc3cc(C)ccc3n2S(=O)(=O)c2ccc(C)cc2)cc1	15
Cc1ccc(S(=O)(=O)Nc2ccc(Cl)cc2-c2cc3cc(Cl)ccc3n2S(=O)(=O)c2ccc(C)cc2)cc1	10
Cc1ccc(NS(C)(=O)=O)c(-c2cc3cc(C)ccc3n2S(C)(=O)=O)c1	42
CC(=O)c1ccc(NS(C)(=O)=O)c(-c2cc3cc(C(C)=O)ccc3n2S(C)(=O)=O)c1	30
Cc1ccc(S(=O)(=O)Nc2ccccc2-c2cc3ccccc3n2S(=O)(=O)c2ccc(C)cc2)cc1	12
Cc1ccc(S(=O)(=O)Nc2ccc(F)cc2-c2cc3cc(F)ccc3n2S(=O)(=O)c2ccc(C)cc2)cc1	15
CS(=O)(=O)Nc1ccccc1-c1cc2ccccc2n1S(C)(=O)=O	40
Cc1ccc(S(=O)(=O)Nc2ccc(C(F)(F)F)cc2-c2cc3cc(C(F)(F)F)ccc3n2S(=O)(=O)c2ccc(C)cc2)cc1	12
CS(=O)(=O)Nc1ccc(Cl)cc1-c1cc2cc(Cl)ccc2n1S(C)(=O)=O	45
CS(=O)(=O)Nc1ccc(C(F)(F)F)cc1-c1cc2cc(C(F)(F)F)ccc2n1S(C)(=O)=O	25
CS(=O)(=O)Nc1ccc([N+](=O)[O-])cc1-c1cc2cc([N+](=O)[O-])ccc2n1S(C)(=O)=O	15
CS(=O)(=O)Nc1ccc(F)cc1-c1cc2cc(F)ccc2n1S(C)(=O)=O	69

System: not listed separately
Assay: (§1) Inhibition of Mycobacterium tuberculosis chorismate mutase expressed in Escherichia coli BL21 (DE3) assessed as conversion of chorismate to prephenate after 5 mins

Structure (SMILES)	IC50 [µM]
COc1ccc(CCNc2c([N+](=O)[O-])cc(C(=O)O)cc2S(N)(=O)=O)cc1OC	< 10
CS(=O)(=O)Nc1ccc(F)cc1-c1cc2cc(F)ccc2n1S(C)(=O)=O	17

System: Mycobacterium tuberculosis
Assay: as §1

Structure (SMILES)	inhibition
CS(=O)(=O)Nc1ccc(F)cc1-c1cc2cc(F)ccc2n1S(C)(=O)=O	Dose-dependent effect
